Experimental data reported in paper PMC3158827 (ACS chemical biology, 2011).
Non-standard residues stand in square brackets, D forms with d. No end group written: not given here.

Experiments:
plasma kallikrein = conditions: cited from earlier work
chymotrypsin = experiment: chymotrypsin; conditions: 37°C, up to 120 minutes
thrombin [1] = conditions: cited from earlier work
thrombin [2] = conditions: cited from earlier work; remark: listed apart in the source
trypsin = conditions: cited from earlier work

Substance: Ecallantide
- Ki (plasma kallikrein): 0.044 nM

Substance: GGSCIDGGRLMCGGS
- cleaved bond (chymotrypsin): methionine-C

Substance: [dF]PRP
- thrombin inhibition (thrombin [1]; concentrations up to 10 µM): does not significantly inhibit thrombin

Substance: bivalirudin
- Ki (thrombin [1]): 2 nM
- association rate constant (thrombin [2]): 4e+08 M⁻¹ s⁻¹
- dissociation rate (thrombin [2]): 0.8 s⁻¹

Substance: ω-conotoxin MVIIa
- degradation by trypsin (trypsin): degraded
